According to patent US6737383B1, “Herbicidal oxadiazolidines” (priority 1999, dated 2004):

Experiments:
morningglory = assay: Test B pre/postemergence morningglory; assay type: in vivo, Ipomoea hederacea
Outline: (§1)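 Test chemicals in a non-phytotoxic solvent mixture with surfactant were sprayed preemergence onto planted seeds and postemergence onto plants 2 to 18 cm tall (1- to 4-leaf stage). After twelve to sixteen days in a greenhouse, injury was visually rated against untreated controls from 0 (no effect) to 10 (complete control).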

smallflower flatsedge = assay: Test B flood test smallflower flatsedge; assay type: in vivo, Cyperus difformis
Outline: (§2)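 Read-out is a visual response score from 0 (no effect) to 10 (complete control), assigned by comparison with untreated controls. Treatment was applied at the 2-leaf stage, and plants stayed in the greenhouse for twelve to sixteen days before scoring.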

rape = assay: Test B pre/postemergence rape; assay type: in vivo, Brassica napus
Outline: as §1

bamyardgrass = assay: Test B flood test barnyardgrass; assay type: in vivo, Echinochloa crus-galli
Outline: as §2

[1] = Postemergence, Rate 62 g/ha, scale of 0 to 10, 0 is no effect, 10 is complete control
[2] = Postemergence, Rate 125 g/ha, scale 0 to 10, 0 is no effect, 10 is complete control
[3] = Postemergence, Rate 500 g/ha, scale of 0 to 10 where 0 is no effect and 10 is complete control
[4] = Preemergence, Rate 62 g/ha, scale 0 to 10 (0 no effect, 10 complete control)
[5] = Preemergence, Rate 125 g/ha, scale 0 to 10, 0 is no effect, 10 is complete control
[6] = Preemergence, Rate 500 g/ha, scale of 0 to 10 where 0 is no effect and 10 is complete control
[7] = Rate 250 g/ha, Postemergence, scale of 0 to 10 where 0 is no effect and 10 is complete control
[8] = Rate 62 g/ha, flood test species, Pre-emergence, visual evaluation after twelve to sixteen days
[9] = Rate 125 g/ha, under heading Pre-emergence, flood test species, visual evaluation after twelve to sixteen days
[10] = Rate 250 g/ha, Pre-emergence (flood test species), scale 0 to 10, 0 is no effect, 10 is complete control
[11] = Rate 500 g/ha, Pre-emergence section of Table B, 0 to 10 scale (0 no effect, 10 complete control)
[12] = Preemergence, Rate 62 g/ha, scale of 0 to 10 where 0 is no effect and 10 is complete control
[13] = Preemergence, Rate 125 g/ha, 0 is no effect, 10 is complete control
[14] = Preemergence, Rate 250 g/ha, scale 0 to 10, 0 is no effect, 10 is complete control
[15] = Rate 62 g/ha, Postemergence, scale of 0 to 10 where 0 is no effect and 10 is complete control
[16] = Rate 125 g/ha, Postemergence, scale 0 to 10
[17] = Rate 500 g/ha, Postemergence, scale 0 to 10
[18] = Rate 31 g/ha, Pre-emergence section (flood test species), scale 0 to 10
[19] = Rate 62 g/ha, headed Pre-emergence (flood test species), scale 0 to 10 (0 no effect, 10 complete control)
[20] = Rate 125 g/ha, Pre-emergence, flood test species, scale 0 to 10 where 0 is no effect and 10 is complete control
[21] = Rate 250 g/ha, Pre-emergence, flood-test species, scale 0 to 10, 0 is no effect, 10 is complete control
[22] = Rate 500 g/ha, Pre-emergence, flood test species, scale 0 to 10 (0 no effect, 10 complete control)
[23] = Rate 500 g/ha, headed Pre-emergence (flood test species), scale 0 to 10 (0 no effect, 10 complete control)
[24] = Postemergence, Rate 62 g/ha, scale 0 to 10, 0 is no effect, 10 is complete control
[25] = Postemergence, Rate 250 g/ha, scale 0 to 10, 0 no effect, 10 complete control
[26] = Preemergence, Rate 62 g/ha, scale 0 to 10, 0 is no effect, 10 is complete control
[27] = Preemergence, Rate 125 g/ha, scale 0 to 10 (0 no effect, 10 complete control)
[28] = Preemergence, Rate 250 g/ha, scale of 0 to 10 where 0 is no effect and 10 is complete control
[29] = Preemergence, Rate 500 g/ha, scale 0 (no effect) to 10 (complete control)
[30] = Rate 125 g/ha, Postemergence, scale 0 to 10, 0 no effect, 10 complete control
[31] = Rate 500 g/ha, Postemergence, 0 to 10 scale (0 no effect, 10 complete control)
[32] = Rate 125 g/ha, Postemergence section (flood test species), scale 0 to 10, 0 no effect, 10 complete control
[33] = flood test, listed under Postemergence, Rate 250 g/ha, scale 0 to 10, 0 no effect, 10 complete control
[34] = Postemergence, Rate 1000 g/ha, scale 0 to 10 (0 no effect, 10 complete control)
[35] = Rate 125 g/ha, Postemergence, scale of 0 to 10 where 0 is no effect and 10 is complete control
[36] = Rate 1000 g/ha, Preemergence, scale 0 to 10 (0 no effect, 10 complete control)
[37] = Pre-emergence, Rate 1000 g/ha, scale 0 to 10 (0 no effect, 10 complete control)
[38] = Postemergence, Rate 125 g/ha, scale of 0 to 10 where 0 is no effect and 10 is complete control
[39] = Preemergence, Rate 125 g/ha, scale of 0 to 10 where 0 is no effect and 10 is complete control
[40] = Preemergence, Rate 250 g/ha, scale 0 (no effect) to 10 (complete control)
[41] = Rate 62 g/ha, Preemergence, scale 0 to 10
[42] = Rate 250 g/ha, Postemergence, scale 0 to 10, 0 is no effect, 10 is complete control
[43] = Rate 500 g/ha, Postemergence, scale 0 to 10, 0 is no effect, 10 is complete control
[44] = Rate 500 g/ha, Preemergence, scale 0 to 10 (0 no effect, 10 complete control)
[45] = Pre-emergence, Rate 62 g/ha, scale 0 to 10, 0 is no effect, 10 is complete control
[46] = Rate 125 g/ha, Pre-emergence section (flood test species), scale 0 to 10, 0 no effect, 10 complete control
[47] = Rate 500 g/ha, Postemergence, scale 0 to 10, 0 no effect, 10 complete control
[48] = Rate 250 g/ha, headed Pre-emergence (flood test species), scale 0 to 10 (0 no effect, 10 complete control)

## CCCCn1c(=O)on(C(=O)N(c2ccccc2)C(C)C)c1=O [Compound 556]
morningglory; [1]
  Morningglory plant response rating: 0
morningglory; [2]
  Morningglory plant response rating: 2
morningglory; [3]
  Plant response rating, Morningglory: 10
morningglory; [4]
  Morningglory plant response rating: 0
morningglory; [5]
  Morningglory plant response rating: 0
morningglory; Preemergence, Rate 250 g/ha
  Morningglory plant response rating (0 to 10 scale): 0
morningglory; [6]
  Morningglory plant response rating: 0
morningglory; [7]
  Plant response rating, Morningglory: 4
Smallflower flatsedge; [8]
  Plant response rating, S. Flatsedge (0 to 10 scale, 0 is no effect, 10 is complete control): 0
Smallflower flatsedge; [9]
  S. Flatsedge plant response rating (0 to 10 scale, 0 is no effect, 10 is complete control): 0
Smallflower flatsedge; [10]
  S. Flatsedge plant response rating: 0
Smallflower flatsedge; [11]
  S. Flatsedge plant response rating: 0
rape; [1]
  Rape plant response rating: 0
rape; [2]
  Rape plant response rating: 0
rape; [3]
  Plant response rating, Rape: 2
rape; [4]
  Rape plant response rating: 0
rape; [5]
  Rape plant response rating: 3
rape; Preemergence, Rate 250 g/ha
  Rape plant response rating (0 to 10 scale): 3
rape; [6]
  Rape plant response rating: 8
rape; [7]
  Plant response rating, Rape: 0
bamyardgrass; [8]
  Plant response rating, Barnyardgrass (0 to 10 scale, 0 is no effect, 10 is complete control): 0
bamyardgrass; [9]
  Barnyardgrass plant response rating (0 to 10 scale, 0 is no effect, 10 is complete control): 0
bamyardgrass; [10]
  Barnyardgrass plant response rating: 0
bamyardgrass; [11]
  Barnyardgrass plant response rating: 1

## Cc1nc(C)c(-n2c(=O)on(C(=O)N(c3ccc(Cl)cc3)C(C)C)c2=O)s1 [Compound 196]
morningglory; [12]
  Morningglory plant response rating: 0
morningglory; [13]
  Morningglory plant response rating (0 to 10 scale): 0
morningglory; [14]
  Morningglory plant response rating: 0
morningglory; [6]
  Plant response rating, Morningglory: 0
morningglory; [15]
  Morningglory plant response rating: 0
morningglory; [16]
  Morningglory plant response rating: 0
morningglory; Rate 250 g/ha, Postemergence
  Plant response rating (0 to 10; 0 is no effect, 10 is complete control), Morningglory: 0
morningglory; [17]
  Morningglory plant response rating: 0
Smallflower flatsedge; [18]
  S. Flatsedge plant response rating: 0
Smallflower flatsedge; [19]
  S. Flatsedge plant response rating: 0
Smallflower flatsedge; [20]
  S. Flatsedge plant response rating: 0
Smallflower flatsedge; [21]
  S. Flatsedge plant response rating: 0
Smallflower flatsedge; [22]
  S. Flatsedge plant response rating: 0
rape; [12]
  Rape plant response rating: 0
rape; [13]
  Rape plant response rating (0 to 10 scale): 0
rape; [14]
  Rape plant response rating: 0
rape; [6]
  Plant response rating, Rape: 0
rape; [15]
  Rape plant response rating: 0
rape; [16]
  Rape plant response rating: 0
rape; Rate 250 g/ha, Postemergence
  Plant response rating (0 to 10; 0 is no effect, 10 is complete control), Rape: 0
rape; [17]
  Rape plant response rating: 0
bamyardgrass; [18]
  Barnyardgrass plant response rating: 0
bamyardgrass; [19]
  Barnyardgrass plant response rating: 0
bamyardgrass; [20]
  Barnyardgrass plant response rating: 0
bamyardgrass; [21]
  Barnyardgrass plant response rating: 0
bamyardgrass; [23]
  Plant response rating, Barnyardgrass: 0

## CC(C)N(C(=O)n1oc(=O)n(-c2cc(Cl)ccc2Cl)c1=O)c1ccc(F)cc1 [Compound 16]
morningglory; [24]
  Morningglory plant response rating: 1
morningglory; [25]
  Morningglory plant response rating: 1
morningglory; [26]
  Plant response rating, Morningglory: 0
morningglory; [27]
  Plant response rating, Morningglory: 0
morningglory; [28]
  Plant response rating, Morningglory: 0
morningglory; [29]
  Morningglory plant response rating: 0
morningglory; [30]
  Morningglory plant response rating: 1
morningglory; [31]
  Morningglory plant response rating: 3
Smallflower flatsedge; [24]
  S. Flatsedge plant response rating: 0
Smallflower flatsedge; [32]
  S. Flatsedge plant response rating: 0
Smallflower flatsedge; [33]
  S. Flatsedge plant response rating: 0
rape; [24]
  Rape plant response rating: 0
rape; [25]
  Rape plant response rating: 0
rape; [26]
  Plant response rating, Rape: 0
rape; [27]
  Plant response rating, Rape: 0
rape; [28]
  Plant response rating, Rape: 0
rape; [29]
  Rape plant response rating: 0
rape; [30]
  Rape plant response rating: 0
rape; [31]
  Rape plant response rating: 0
bamyardgrass; [24]
  Barnyardgrass plant response rating: 0
bamyardgrass; [32]
  Barnyardgrass plant response rating: 0
bamyardgrass; Rate 500 g/ha, Postemergence section of Table B, 0 to 10 scale (0 no effect, 10 complete control)
  Barnyardgrass plant response rating: 0
bamyardgrass; [33]
  Barnyardgrass plant response rating: 0

## CCOC(=O)C(C)N(C(=O)n1oc(=O)n(C(C)C)c1=O)c1ccc(F)cc1 (stereo not shown) [Compound 302]
morningglory; [34]
  Morningglory plant response rating: 2
morningglory; Preemergence, Rate 125 g/ha
  Morningglory plant response rating (0 to 10 scale): 0
morningglory; [28]
  Morningglory plant response rating: 0
morningglory; [6]
  Morningglory plant response rating: 0
morningglory; [35]
  Morningglory plant response rating: 1
morningglory; [7]
  Plant response rating, Morningglory: 2
morningglory; [36]
  Plant response rating, Morningglory: 0
Smallflower flatsedge; [37]
  S. Flatsedge plant response rating: 0
Smallflower flatsedge; [20]
  S. Flatsedge plant response rating: 0
Smallflower flatsedge; [21]
  S. Flatsedge plant response rating: 0
Smallflower flatsedge; [22]
  S. Flatsedge plant response rating: 0
rape; [34]
  Rape plant response rating: 0
rape; Preemergence, Rate 125 g/ha
  Rape plant response rating (0 to 10 scale): 0
rape; [28]
  Rape plant response rating: 0
rape; [35]
  Rape plant response rating: 0
rape; [7]
  Plant response rating, Rape: 0
rape; [36]
  Plant response rating, Rape: 8
bamyardgrass; [37]
  Barnyardgrass plant response rating: 0
bamyardgrass; [20]
  Barnyardgrass plant response rating: 0
bamyardgrass; [21]
  Barnyardgrass plant response rating: 0
bamyardgrass; [22]
  Barnyardgrass plant response rating: 0

## CC(C)N(C(=O)n1oc(=O)n(CC2=NOCCO2)c1=O)c1ccc(F)cc1F [Compound 758]
morningglory; [24]
  Plant response rating, Morningglory: 2
morningglory; [38]
  Morningglory plant response rating: 4
morningglory; [39]
  Plant response rating, Morningglory: 0
morningglory; [40]
  Morningglory plant response rating: 0
morningglory; [41]
  Morningglory plant response rating: 0
morningglory; [42]
  Morningglory plant response rating: 4
morningglory; [43]
  Morningglory plant response rating: 8
morningglory; [44]
  Morningglory plant response rating: 0
Smallflower flatsedge; [45]
  S. Flatsedge plant response rating: 0
Smallflower flatsedge; [46]
  S. Flatsedge plant response rating: 0
Smallflower flatsedge; [10]
  S. Flatsedge plant response rating: 0
Smallflower flatsedge; [11]
  S. Flatsedge plant response rating: 0
rape; [24]
  Plant response rating, Rape: 0
rape; [38]
  Rape plant response rating: 0
rape; [39]
  Plant response rating, Rape: 4
rape; [40]
  Rape plant response rating: 4
rape; [41]
  Rape plant response rating: 0
rape; [42]
  Rape plant response rating: 0
rape; [43]
  Rape plant response rating: 2
rape; [44]
  Rape plant response rating: 8
bamyardgrass; [45]
  Barnyardgrass plant response rating: 0
bamyardgrass; [46]
  Barnyardgrass plant response rating: 0
bamyardgrass; [10]
  Barnyardgrass plant response rating: 0
bamyardgrass; [11]
  Barnyardgrass plant response rating: 0

## Cc1cccc(C)c1-n1c(=O)on(C(=O)N(Cc2ccccc2)C(C)C)c1=O [Compound 69]
morningglory; [24]
  Morningglory plant response rating: 0
morningglory; [25]
  Morningglory plant response rating: 0
morningglory; [4]
  Morningglory plant response rating: 0
morningglory; [27]
  Plant response rating, Morningglory: 0
morningglory; [28]
  Plant response rating, Morningglory: 0
morningglory; [29]
  Morningglory plant response rating: 0
morningglory; [30]
  Morningglory plant response rating: 0
morningglory; [47]
  Morningglory plant response rating: 0
Smallflower flatsedge; [19]
  S. Flatsedge plant response rating: 0
Smallflower flatsedge; [20]
  S. Flatsedge plant response rating: 0
Smallflower flatsedge; [48]
  S. Flatsedge plant response rating: 0
Smallflower flatsedge; [23]
  Plant response rating, S. Flatsedge: 0
rape; [24]
  Rape plant response rating: 0
rape; [25]
  Rape plant response rating: 0
rape; [4]
  Rape plant response rating: 0
rape; [27]
  Plant response rating, Rape: 0
rape; [28]
  Plant response rating, Rape: 0
rape; [29]
  Rape plant response rating: 0
rape; [30]
  Rape plant response rating: 0
rape; [47]
  Rape plant response rating: 0
bamyardgrass; [19]
  Barnyardgrass plant response rating: 0
bamyardgrass; [20]
  Barnyardgrass plant response rating: 0
bamyardgrass; [48]
  Barnyardgrass plant response rating: 0
bamyardgrass; [23]
  Plant response rating, Barnyardgrass: 0
